In brackets after ≈: the same amount, converted by molar mass. Where two headings read alike, the source gives them in different places.
Legend:
Type in all cases: cell-based
[1] = test system: Klebsiella neumoniae ATCC10031; experiment: Bactericidal test (MIC), Klebsiella neumoniae ATCC10031
Description: (§1) Results of bactericidal tests (MIC, r/ml) on the penicillin derivatives of this invention prepared in the above examples are shown in the following table.

[2] = test system: Pseudomonas aeruginosa IFO-3080; experiment: Bactericidal test (MIC), Pseudomonas aeruginosa IFO-3080; details: IFO3080
Description: as §1

[3] = test system: Pseudomonas aeruginosa 130; experiment: Bactericidal test (MIC), Pseudomonas aeruginosa 130; details: (16) Pseudomonas aeruginosa 130
Description: as §1

[4] = test system: Pseudomonas aeruginosa Tid-53; experiment: Bactericidal test (MIC), Pseudomonas aeruginosa Tid-53; details: TID53; (14) Pseudomonas aeruginosa Tid-53
Description: as §1

[5] = test system: Staphylococcus aureus 209-p; experiment: Bactericidal test (MIC), Staphylococcus aureus 209-p; details: (1) Staphylococcus aureus 209-p
Description: as §1

[6] = test system: Escherichia Coli NIHJ JC-2; experiment: Bactericidal test (MIC), Escherichia Coli NIHJ JC-2; details: NIHJJC2; (5) Escherichia Coli NIHJ JC-2
Description: as §1

[7] = test system: Staphylococcus aureus 1248; experiment: Bactericidal test (MIC), Staphylococcus aureus 1248
Description: as §1

Serratia G-18 = experiment: Bactericidal test (MIC), Serratia G-18; details: G18
Description: as §1

Enterobactor cloacae 147 = experiment: Bactericidal test (MIC), Enterobactor cloacae 147; details: (7) Enterobactor cloacae 147
Description: as §1

[8] = test system: Pseudomonas aeruginosa 0-37; experiment: Bactericidal test (MIC), Pseudomonas aeruginosa 0-37; details: 037; (13) Pseudomonas aeruginosa 0-37
Description: as §1

[9] = test system: Salmonella typhimurium G-20; experiment: Bactericidal test (MIC), Salmonella typhimurium G-20; details: Salmonella enterica; (4) Salmonella typhimurium G-20
Description: as §1

Bacillus subtilis = experiment: Bactericidal test (MIC), Bacillus subtilis; details: (3) Bacillus subtilis
Description: as §1

[10] = test system: Pseudomonas aeruginosa GN-315; experiment: Bactericidal test (MIC), Pseudomonas aeruginosa GN-315; details: GN315; (15) Pseudomonas aeruginosa GN-315
Description: as §1

Rettgerella var. Tid-21 = experiment: Bactericidal test (MIC), Rettgerella var. Tid-21
Description: as §1

Morganella var. G-2 = experiment: Bactericidal test (MIC), Morganella var. G-2; details: VAR.G2
Description: as §1

[11] = test system: Enterobacter cloacae IF012937; experiment: Bactericidal test (MIC), Enterobacter cloacae IF012937; details: (8) Enterobacter cloacae IF012937
Description: as §1

[12] = (12) Pseudomonas aeruginosa IFO-3080, read-out: MIC
[13] = (2) Staphylococcus aureus 1248, read-out: MIC
[14] = (11) Serratia G-18, read-out: MIC
[15] = (6) Klebsiella neumoniae ATCC10031, read-out: MIC
[16] = (10) Rettgerella var. Tid-21, read-out: MIC
[17] = (9) Morganella var. G-2, read-out: MIC

Row | Compound | MIC [2, 12] [µg/mL] | MIC [3] [µg/mL] | MIC [4] [µg/mL] | MIC [5] [µg/mL] | MIC [6] [µg/mL] | MIC [7, 13] [µg/mL] | MIC (Serratia G-18; [14]) [µg/mL] | MIC (Enterobactor cloacae 147) [µg/mL] | MIC [8] [µg/mL] | MIC [9] [µg/mL] | MIC (Bacillus subtilis) [µg/mL] | MIC [10] [µg/mL] | MIC [1, 15] [µg/mL] | MIC (Rettgerella var. Tid-21; [16]) [µg/mL] | MIC (Morganella var. G-2; [17]) [µg/mL] | MIC [11] [µg/mL] | also measured
1 | CC1(C)S[C@@H]2[C@H](NC(=O)[C@H](N)c3ccccc3)C(=O)N2[C@H]1C(=O)O [Ampicillin, ampicillin, reference compound] | 200 (≈ 572 µM) | > 400 | > 400 | < 0.8 | < 0.8 | < 0.8 | 25 (≈ 71.5 µM) | 400 (≈ 1140 µM) | > 400 | < 0.8 | < 0.8 | > 400 |  |  |  |  | MIC ([1]; Klebsiella, ATCC10031): 12.5 µg/mL (≈ 35.8 µM); MIC (Rettgerella var. Tid-21): 6.25 µg/mL (≈ 17.9 µM); MIC (Morganella var. G-2; Morganella): 12.5 µg/mL (≈ 35.8 µM)
2 | CC1(C)S[C@@H]2[C@H](NC(=O)C(C(=O)O)c3ccccc3)C(=O)N2[C@H]1C(=O)O (stereo partly drawn) [Carbenicillin, carbenicillin, reference compound] |  | 25 (≈ 66.1 µM) | 200 (≈ 529 µM) | < 0.8 | < 0.8 |  |  | 200 (≈ 529 µM) | > 400 | < 0.8 | < 0.8 | 100 (≈ 264 µM) | 50 (≈ 132 µM) | 25 (≈ 66.1 µM) | 1.56 (≈ 4.12 µM) |  | MIC ([2]; Pseudomonas aeruginosa): 12.5 µg/mL (≈ 33 µM); MIC ([7]; Staphylococcus aureus, 1248): 3.13 µg/mL (≈ 8.27 µM); MIC (Serratia G-18; Serratia): 6.25 µg/mL (≈ 16.5 µM)
3 | CC1(C)S[C@@H]2[C@H](NC(=O)[C@H](NC(=O)c3cc4cc(Br)cc(Br)c4oc3=O)c3ccccc3)C(=O)N2[C@H]1C(=O)O [Example 4, D(-)-α-(6,8-Dibromocoumarin-3-carbonamido)benzylpenicillin] | 50 (≈ 73.6 µM) | 50 (≈ 73.6 µM) | 200 (≈ 294 µM) | 1.56 (≈ 2.3 µM) | < 0.4 | 50 (≈ 73.6 µM) | 100 (≈ 147 µM) | 50 (≈ 73.6 µM) | 200 (≈ 294 µM) | 3.13 (≈ 4.61 µM) | 1.56 (≈ 2.3 µM) | 200 (≈ 294 µM) | 3.13 (≈ 4.61 µM) | 100 (≈ 147 µM) | 25 (≈ 36.8 µM) | 200 (≈ 294 µM) | 
4 | Cc1ccc2oc(=O)c(C(=O)N[C@@H](C(=O)N[C@@H]3C(=O)N4[C@@H]3SC(C)(C)[C@@H]4C(=O)O)c3ccccc3)c(C)c2c1 [Example 5, D(-)-α-(4,6-Dimethylcoumarin-3-carbonamido)benzylpenicillin] | 12.5 (≈ 22.7 µM) | 12.5 (≈ 22.7 µM) | 50 (≈ 91 µM) | < 0.4 | < 0.4 | 1.56 (≈ 2.84 µM) | 50 (≈ 91 µM) | 100 (≈ 182 µM) | 200 (≈ 364 µM) | < 0.4 | < 0.4 | 50 (≈ 91 µM) | 0.8 (≈ 1.46 µM) | 25 (≈ 45.5 µM) | 25 (≈ 45.5 µM) | 50 (≈ 91 µM) | 
5 | COc1ccc2oc(=O)c(C(=O)N[C@@H](C(=O)N[C@@H]3C(=O)N4[C@@H]3SC(C)(C)[C@@H]4C(=O)O)c3ccccc3)cc2c1 [Example 7, D(-)-α-(6-Methoxycoumarin-3-carbonamido)benzylpenicillin] | 1.56 (≈ 2.83 µM) | 1.56 (≈ 2.83 µM) | 3.13 (≈ 5.67 µM) | < 0.4 | < 0.4 | 1.56 (≈ 2.83 µM) | 12.5 (≈ 22.7 µM) | 3.13 (≈ 5.67 µM) | 25 (≈ 45.3 µM) | < 0.4 | < 0.4 | 3.13 (≈ 5.67 µM) | < 0.4 | 6.25 (≈ 11.3 µM) | 6.25 (≈ 11.3 µM) | 3.13 (≈ 5.67 µM) | 
6 | COc1ccc2cc(C(=O)N[C@@H](C(=O)N[C@@H]3C(=O)N4[C@@H]3SC(C)(C)[C@@H]4C(=O)O)c3ccccc3)c(=O)oc2c1 [Example 8, D(-)-α-(7-Methoxycoumarin-3-carbonamido)benzylpenicillin] | 1.56 (≈ 2.83 µM) | 3.13 (≈ 5.67 µM) | 3.13 (≈ 5.67 µM) | < 0.4 | < 0.4 | < 0.4 | 12.5 (≈ 22.7 µM) | 1.56 (≈ 2.83 µM) | 25 (≈ 45.3 µM) | < 0.4 | < 0.4 | 3.13 (≈ 5.67 µM) | < 0.4 | 6.25 (≈ 11.3 µM) | 3.13 (≈ 5.67 µM) | 6.25 (≈ 11.3 µM) | 
7 | CC1(C)S[C@@H]2[C@H](NC(=O)[C@H](NC(=O)c3cc4cc(O)ccc4oc3=O)c3ccccc3)C(=O)N2[C@H]1C(=O)O [Example 10, D(-)-α-(6-Hydroxycoumarin-3-carbonamido)benzylpenicillin] | 1.56 (≈ 2.9 µM) | 3.13 (≈ 5.82 µM) | 6.25 (≈ 11.6 µM) | < 0.4 | < 0.4 | 1.56 (≈ 2.9 µM) | 12.5 (≈ 23.3 µM) | 3.13 (≈ 5.82 µM) | 25 (≈ 46.5 µM) | < 0.4 | < 0.4 | 3.13 (≈ 5.82 µM) | 0.8 (≈ 1.49 µM) | 6.25 (≈ 11.6 µM) | 6.25 (≈ 11.6 µM) | 100 (≈ 186 µM) | 
8 | CC1(C)S[C@@H]2[C@H](NC(=O)[C@H](NC(=O)c3cc4ccc(O)cc4oc3=O)c3ccccc3)C(=O)N2[C@H]1C(=O)O [Example 11, D(-)-α-(7-Hydroxycoumarin-3-carbonamido)benzylpenicillin] | 3.13 (≈ 5.82 µM) | 6.25 (≈ 11.6 µM) | 25 (≈ 46.5 µM) | < 0.4 | < 0.4 | 6.25 (≈ 11.6 µM) | 200 (≈ 372 µM) | 12.5 (≈ 23.3 µM) | 100 (≈ 186 µM) | < 0.4 | < 0.4 | 12.5 (≈ 23.3 µM) | 12.5 (≈ 23.3 µM) | 25 (≈ 46.5 µM) | 50 (≈ 93 µM) | 12.5 (≈ 23.3 µM) | 
9 | CC(=O)Oc1ccc2cc(C(=O)N[C@@H](C(=O)N[C@@H]3C(=O)N4[C@@H]3SC(C)(C)[C@@H]4C(=O)O)c3ccccc3)c(=O)oc2c1 [Example 12, D(-)-α-(7-Acetoxycoumarin-3-carbonamido)benzylpenicillin] | 1.56 (≈ 2.69 µM) | 1.56 (≈ 2.69 µM) | 6.25 (≈ 10.8 µM) | < 0.4 | < 0.4 | 3.13 (≈ 5.4 µM) | 100 (≈ 173 µM) | 12.5 (≈ 21.6 µM) | 50 (≈ 86.3 µM) | < 0.4 | < 0.4 | 6.25 (≈ 10.8 µM) | 12.5 (≈ 21.6 µM) | 12.5 (≈ 21.6 µM) | 25 (≈ 43.1 µM) | 100 (≈ 173 µM) | 
10 | CC(=O)Oc1cccc2cc(C(=O)N[C@@H](C(=O)N[C@@H]3C(=O)N4[C@@H]3SC(C)(C)[C@@H]4C(=O)O)c3ccccc3)c(=O)oc12 [Example 21, D-α-(8-Acetoxycoumarin-3-carbonamido)benzylpenicillin] | < 0.4 | 0.8 (≈ 1.38 µM) | 12.5 (≈ 21.6 µM) | < 0.4 | < 0.4 | 3.13 (≈ 5.4 µM) | 12.5 (≈ 21.6 µM) |  | 50 (≈ 86.3 µM) |  |  | 3.13 (≈ 5.4 µM) | 0.8 (≈ 1.38 µM) | 1.56 (≈ 2.69 µM) | 1.56 (≈ 2.69 µM) | 6.25 (≈ 10.8 µM) | 
11 | COc1cc(OC)c2cc(C(=O)N[C@@H](C(=O)N[C@@H]3C(=O)N4[C@@H]3SC(C)(C)[C@@H]4C(=O)O)c3ccccc3)c(=O)oc2c1 [Example 22, D-α-(5,7-Dimethoxycoumarin-3-carbonamido)benzylpenicillin] | 1.56 (≈ 2.68 µM) | 3.13 (≈ 5.38 µM) | 6.25 (≈ 10.7 µM) | < 0.4 | < 0.4 | 3.13 (≈ 5.38 µM) | 100 (≈ 172 µM) | 12.5 (≈ 21.5 µM) | 50 (≈ 86 µM) |  |  | 6.25 (≈ 10.7 µM) | 1.56 (≈ 2.68 µM) | 25 (≈ 43 µM) | 50 (≈ 86 µM) | 50 (≈ 86 µM) | 
12 | CCOc1ccc2oc(=O)c(C(=O)N[C@@H](C(=O)N[C@@H]3C(=O)N4[C@@H]3SC(C)(C)[C@@H]4C(=O)O)c3ccccc3)cc2c1 [Example 23, D-α-(6-Ethoxycoumarin-3-carbonamido)benzylpenicillin] | 0.8 (≈ 1.41 µM) | 1.56 (≈ 2.76 µM) | 3.13 (≈ 5.53 µM) | < 0.4 | < 0.4 |  | 25 (≈ 44.2 µM) | 1.56 (≈ 2.76 µM) | 12.5 (≈ 22.1 µM) |  |  | 3.13 (≈ 5.53 µM) | 6.25 (≈ 11.1 µM) | 3.13 (≈ 5.53 µM) | 3.13 (≈ 5.53 µM) | 6.25 (≈ 11.1 µM) | 
13 | COc1cccc2oc(=O)c(C(=O)N[C@@H](C(=O)N[C@@H]3C(=O)N4[C@@H]3SC(C)(C)[C@@H]4C(=O)O)c3ccccc3)cc12 [Example 24, D-α-(5-Methoxycoumarin-3-carbonamido)benzylpenicillin] | 0.8 (≈ 1.45 µM) | 1.56 (≈ 2.83 µM) | 3.13 (≈ 5.67 µM) | < 0.4 | < 0.4 |  | 25 (≈ 45.3 µM) | 1.56 (≈ 2.83 µM) | 12.5 (≈ 22.7 µM) |  |  | 3.13 (≈ 5.67 µM) |  | 3.13 (≈ 5.67 µM) | 3.13 (≈ 5.67 µM) | 6.25 (≈ 11.3 µM) | 
14 | CC1(C)S[C@@H]2[C@H](NC(=O)[C@H](NC(=O)c3cc4cccc(O)c4oc3=O)c3ccccc3)C(=O)N2[C@H]1C(=O)O [Example 26, D(-)-α-(8-Hydroxycoumarin-3-carbonamido)benzylpenicillin] | < 0.4 | 1.56 (≈ 2.9 µM) | 6.25 (≈ 11.6 µM) | < 0.4 | < 0.4 |  | 12.5 (≈ 23.3 µM) | 3.13 (≈ 5.82 µM) | 50 (≈ 93 µM) |  | < 0.4 | 1.56 (≈ 2.9 µM) |  | 1.56 (≈ 2.9 µM) | 1.56 (≈ 2.9 µM) | 12.5 (≈ 23.3 µM) | 

Reference: patent publication US4303664A, “Novel penicillin derivatives containing a coumarin nucleus and medicines containing the same” (Teijin Limited, priority 1978, dated 1981)
